Laboratory results reported in US12122750B2, “AT2R antagonists and uses thereof” (Eli Lilly and Company, priority 2022, dated 2024).

How the values were obtained:
[1] = target: recombinant human angiotensin-II receptor subtype I (hAT1R) (Homo sapiens (Human), UniProt P30556); assay: Competitive radioligand binding assay (SPA), hAT1R/CHO membranes; conditions: [125I]-Tyr4-Angiotensin-II, read-out: AT1R Ki
Protocol: Membranes hATIR/CHO were Purchased from PerkinElmer, Inc.
Cellular membranes prepared from Chinese hamster ovary (CHO) cells which expressed recombinant human angiotensin-II receptor subtype I (hAT1R), were purchased from PerkinElmer (Catalog Number ES-072-M400UA).
Receptor Binding Protocol
The assays were performed with a scintillation proximity assay (SPA) method using polyvinyltoluene (PVT) wheat germ agglutinin-coupled SPA beads (Perkin Elmer Cat. #RPNQ0001). Assay buffer containing BSA (50 mM Tris-HCl, pH 7.5, 150 mM NaCl, 0.1% w/v fatty-acid free BSA) was used for preparing radioligand, membrane and SPA bead reagent dilution to working stock concentrations. Reference control and test compounds were diluted to obtain ten-point concentration response curves using a four-fold serial dilution protocol onto assay plates, dispensed acoustically from DMSO stock using automated ECHO instrument technology (Labcyte, Inc.). Concentration response curves were routinely generated with the highest final assay concentration for the reference angiotensin-II control at 50 nM, and the highest final assay concentration for the test compounds at 50 μM. […] The hAT2R membrane was combined with PVT-WGA SPA beads to obtain a final assay concentration of 0.25 μg/well hAT2R membrane+0.1 mg/well PVT-WGA SPA bead. And the hAT1R membrane PVT-WGA SPA bead final concentrations was 0.5 μg/well hAT1R membrane+0.1 mg/well PVT-WGA SPA bead. […] For all assays, radioligand addition was followed by the addition of membrane-SPA bead mixture, i.e., the hAT2R membrane-SPA bead mixture (30 μL), the rAT2R membrane-SPA bead mixture, or the AT1R membrane-SPA bead mixture (30 μL) into the assay plate. All dispensing steps were added using a Multiflo FX (Biotek, Inc.) bulk dispensing instrument. After reagent addition steps, assay plates were sealed, and plate contents mixed for one minute on a benchtop micro-plate shaker. Following a 10-hour incubation at room temperature to allow for bead settling and radioligand binding, bound radioactivity was quantitated using a Microbeta Trilux scintillation counter (Perkin Elmer) and expressed as counts per minute (CPM). The unlabeled angiotensin-II control was included on each plate as an experimental assay reference.
Compounds were tested in a 10-point concentration response curve (CRC) format, with each plate containing the positive control angiotensin-II positive reference compound, and experimental compounds. Maximum binding response (Max) was determined in 32 control wells per plate using assay buffer treatment only, and the minimum binding controls or nonspecific binding response (Min) was also determined in 32 wells per plate by the treatment with 50 nM angiotensin-II. All test sample concentration responses were normalized to the control response and calculated as a percent of the maximal response after correcting for nonspecific binding as shown below: % Specific inhibition=100%−[(CPM−Min)/(Max−Min)×100%]
Percent specific binding (y-axis) was plotted versus the log concentration of compound (x-axis).
Binding affinities for compounds of the present disclosure were determined according to the assay described herein.
Binding affinities for compounds of the present disclosure were determined according to the assay described above.

[2] = target: recombinant human angiotensin-II receptor subtype 2 (hAT2R) (Homo sapiens (Human), UniProt P50052); assay: Competitive radioligand binding assay (SPA), hAT2R HEK293 membranes; conditions: [125I]-Tyr4-Angiotensin-II, read-out: AT2R Ki
Protocol: Compound Solubilization Test and reference compounds were received as dry powder reagents, weighed, and solubilized in 100% DMSO to generate a working stock concentration of 10 mM. Membrane Preparation Protocol (hAT2R HEK293 and rAT2R HEK293) hAT2R membranes were prepared from human embryonic kidney (HEK293) cells which were stably transfected with recombinant human angiotensin-II receptor subtype 2 (hAT2R). Cells from the stable cell lines were expanded in tissue culture flasks to generate a large population of cells; cell pellet (>1 gm), and these cell pellets were stored frozen prior to initiating this membrane isolation procedure for each receptor isoform. Frozen cell pellets were thawed in ice-cold homogenization/resuspension buffer (50 mM Tris-HCl, pH 7.5) containing one Complete© protease inhibitor tablet with EDTA (Roche Diagnostics) per 50 mL buffer, and cell pellet was resuspended at a ratio of 10 mL homogenization buffer to gram of starting cell pellet. Cell suspension was homogenized with an overhead motor-driven Teflon-glass homogenizer using 15 to 20 strokes, followed by centrifugation at 1100×g for 10 minutes at 4° C. The supernatant was saved on ice, pellets were homogenized as before, and centrifuged at 1100×g for 10 minutes at 4° C. Both supernatants were combined and subsequently centrifuged at 35,000×g for 60 minutes at 4° C. The final centrifugation pellet (pellet 2) containing the isolated membranes was resuspended in buffer (4 to 5 mL/g of starting cell paste) containing protease inhibitors and quick frozen in liquid nitrogen prior to storage at -80° C. Protein concentration was determined using a BCA kit (ThermoScientific, Inc.) with bovine serum albumin (BSA) as standard. […] The assays were performed with a scintillation proximity assay (SPA) method using polyvinyltoluene (PVT) wheat germ agglutinin-coupled SPA beads (Perkin Elmer Cat. #RPNQ0001). Assay buffer containing BSA (50 mM Tris-HCl, pH 7.5, 150 mM NaCl, 0.1% w/v fatty-acid free BSA) was used for preparing radioligand, membrane and SPA bead reagent dilution to working stock concentrations. Reference control and test compounds were diluted to obtain ten-point concentration response curves using a four-fold serial dilution protocol onto assay plates, dispensed acoustically from DMSO stock using automated ECHO instrument technology (Labcyte, Inc.). Concentration response curves were routinely generated with the highest final assay concentration for the reference angiotensin-II control at 50 nM, and the highest final assay concentration for the test compounds at 50 μM. […] The hAT2R membrane was combined with PVT-WGA SPA beads to obtain a final assay concentration of 0.25 μg/well hAT2R membrane+0.1 mg/well PVT-WGA SPA bead. And the hAT1R membrane PVT-WGA SPA bead final concentrations was 0.5 μg/well hAT1R membrane+0.1 mg/well PVT-WGA SPA bead. […] For all assays, radioligand addition was followed by the addition of membrane-SPA bead mixture, i.e., the hAT2R membrane-SPA bead mixture (30 μL), the rAT2R membrane-SPA bead mixture, or the AT1R membrane-SPA bead mixture (30 μL) into the assay plate. All dispensing steps were added using a Multiflo FX (Biotek, Inc.) bulk dispensing instrument. After reagent addition steps, assay plates were sealed, and plate contents mixed for one minute on a benchtop micro-plate shaker. Following a 10-hour incubation at room temperature to allow for bead settling and radioligand binding, bound radioactivity was quantitated using a Microbeta Trilux scintillation counter (Perkin Elmer) and expressed as counts per minute (CPM). The unlabeled angiotensin-II control was included on each plate as an experimental assay reference. […] Data Analysis Procedures Compounds were tested in a 10-point concentration response curve (CRC) format, with each plate containing the positive control angiotensin-II positive reference compound, and experimental compounds.

Chain of recombinant human angiotensin-II receptor subtype 2 (hAT2R) (P50052 whole entry): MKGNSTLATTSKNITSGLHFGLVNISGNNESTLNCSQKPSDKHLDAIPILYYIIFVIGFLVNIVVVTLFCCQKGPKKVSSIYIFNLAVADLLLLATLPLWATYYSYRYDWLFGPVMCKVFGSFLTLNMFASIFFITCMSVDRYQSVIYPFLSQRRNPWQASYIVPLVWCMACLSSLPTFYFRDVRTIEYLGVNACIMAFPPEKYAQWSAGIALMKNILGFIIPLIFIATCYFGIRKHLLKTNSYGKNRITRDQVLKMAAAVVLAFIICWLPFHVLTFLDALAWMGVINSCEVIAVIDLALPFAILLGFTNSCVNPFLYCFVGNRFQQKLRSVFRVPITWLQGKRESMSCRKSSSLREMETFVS
Chain of recombinant human angiotensin-II receptor subtype I (hAT1R) (P30556 whole entry): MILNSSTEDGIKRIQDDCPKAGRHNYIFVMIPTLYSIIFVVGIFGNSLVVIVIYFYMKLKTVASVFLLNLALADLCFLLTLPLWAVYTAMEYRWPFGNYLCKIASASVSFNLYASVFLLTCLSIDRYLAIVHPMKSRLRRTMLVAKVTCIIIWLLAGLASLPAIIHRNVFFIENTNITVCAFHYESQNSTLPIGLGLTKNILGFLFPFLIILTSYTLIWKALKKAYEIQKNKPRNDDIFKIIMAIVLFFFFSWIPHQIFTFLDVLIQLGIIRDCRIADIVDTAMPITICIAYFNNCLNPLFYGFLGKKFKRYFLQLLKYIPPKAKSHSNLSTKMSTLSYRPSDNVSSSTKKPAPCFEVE

Compound | Ki [1] [nM] | Ki [2] [nM]
O=C(N1CCC(CC(=O)N(c2ccccc2)c2ccccc2F)(C(=O)O)CC1)N1CCc2ccccc21 [Example 56, 4-[2-(N-(2-fluorophenyl)anilino)-2-oxo-ethyl]-1-(indoline-1-carbonyl)piperidine-4-carboxylic acid] |  | 2.99
O=C(N1CCC(CC(=O)N(c2ccccc2)c2cccc(F)c2)(C(=O)O)CC1)N1CCc2ccccc21 [Example 57, 4-[2-(N-(3-fluorophenyl)anilino)-2-oxo-ethyl]-1-(indoline-1-carbonyl)piperidine-4-carboxylic acid] |  | 7.82
O=C(N1CCC(CC(=O)N(c2cccc(F)c2)c2ccccc2F)(C(=O)O)CC1)N1CCc2ccccc21 [Example 60, 4-[2-(3-fluoro-N-(2-fluorophenyl)anilino)-2-oxo-ethyl]-1-(indoline-1-carbonyl)piperidine-4-carboxylic acid] |  | 3.18
O=C(N1CCC(CC(=O)N(c2ccc(F)cc2)c2ccccc2F)(C(=O)O)CC1)N1CCc2ccccc21 [Example 61, 4-[2-(4-fluoro-N-(2-fluorophenyl)anilino)-2-oxo-ethyl]-1-(indoline-1-carbonyl)piperidine-4-carboxylic acid] |  | 3.73
CN(C(=O)N1CCC(CC(=O)N(c2ccc(F)cc2)C2CCCCC2)(C(=O)O)CC1)c1ccc(F)cc1 [compound 21, 4-[2-(N-cyclohexyl-4-fluoro-anilino)-2-oxo-ethyl]-1-[(4-fluorophenyl)-methyl-carbamoyl]piperidine-4-carboxylic acid] |  | 4.01
CN(C(=O)N1CCC(CC(=O)N(c2ccccc2)c2cccc(F)c2)(C(=O)O)CC1)c1ccc(F)cc1 [compound 24, 4-[2-(N-(3-fluorophenyl)anilino)-2-oxo-ethyl]-1-[(4-fluorophenyl)-methyl-carbamoyl]piperidine-4-carboxylic acid] |  | 0.774
COc1cccc(N(C(=O)CC2(C(=O)O)CCN(C(=O)N(C)c3ccc(F)cc3)CC2)c2ccccc2)c1 [compound 25, 1-[(4-fluorophenyl)-methyl-carbamoyl]-4-[2-(N-(3-methoxyphenyl)anilino)-2-oxo-ethyl]piperidine-4-carboxylic acid] |  | 2.7
CN(C(=O)N1CCC(CC(=O)N(c2cccc(F)c2)C2CCCCC2)(C(=O)O)CC1)c1ccc(F)cc1 [compound 27, 4-[2-(N-cyclohexyl-3-fluoro-anilino)-2-oxo-ethyl]-1-[(4-fluorophenyl)-methyl-carbamoyl]piperidine-4-carboxylic acid] |  | 0.4
CC(C)c1ccc(N(C(=O)CC2(C(=O)O)CCN(C(=O)N(C)c3ccc(F)cc3)CC2)c2ccccc2)cc1 [compound 28, 1-[(4-fluorophenyl)-methyl-carbamoyl]-4-[2-(N-(4-isopropylphenyl)anilino)-2-oxo-ethyl]piperidine-4-carboxylic acid] |  | 3.39
Cc1ccc(N(C(=O)CC2(C(=O)O)CCN(C(=O)N(C)c3ccc(F)cc3)CC2)c2ccccc2)cc1 [compound 29, 1-[(4-fluorophenyl)-methyl-carbamoyl]-4-[2-oxo-2-[N-(p-tolyl)anilino]ethyl]piperidine-4-carboxylic] |  | 3.11
CN(C(=O)N1CCC(CC(=O)N(c2ccccc2)c2ccc(Cl)cc2)(C(=O)O)CC1)c1ccc(F)cc1 [compound 31, -[2-(N-(4-chlorophenyl)anilino)-2-oxo-ethyl]-1-[(4-fluorophenyl)-methyl-carbamoyl]piperidine-4-carboxylic acid] |  | 1.89

The next lines start with the values.

Ki [1] [nM] | Ki [2] [nM] | Compound
37300 |  | CN(C(=O)N1CCC(CC(=O)N(c2ccccc2)[C@H]2CCCC(F)(F)C2)(C(=O)O)CC1)c1ccc(F)cc1 (single isomer, unassigned) [44B (isomer 2)]
 | 3.11 | CN(C(=O)N1CCC(CC(=O)N(c2ccccc2)c2ccccc2F)(C(=O)O)CC1)C(C1CC1)C1CC1 [Example 55, 1-[dicyclopropylmethyl(methyl)carbamoyl]-4-[2-(N-(2-fluorophenyl)anilino)-2-oxo-ethyl]piperidine-4-carboxylic acid]
 | 9.86 | O=C(N1CCC(CC(=O)N(c2ccccc2)c2ccc(F)cc2)(C(=O)O)CC1)N1CCc2ccccc21 [Example 58, 4-[2-(N-(4-fluorophenyl)anilino)-2-oxo-ethyl]-1-(indoline-1-carbonyl)piperidine-4-carboxylic acid]
 | 4.23 | O=C(N1CCC(CC(=O)N(c2ccccc2F)c2ccccc2F)(C(=O)O)CC1)N1CCc2ccccc21 [Example 59, 4-[2-(2-fluoro-N-(2-fluorophenyl)anilino)-2-oxo-ethyl]-1-(indoline-1-carbonyl)piperidine-4-carboxylic acid]
 | 2.11 | CN(C(=O)N1CCC(CC(=O)N(c2ccccc2)C2(C3CC3)CC2)(C(=O)O)CC1)c1ccc(F)cc1 [compound 20, 4-[2-(N-(1-cyclopropylcyclopropyl)anilino)-2-oxo-ethyl]-1-[(4-fluorophenyl)-methyl-carbamoyl]piperidine-4-carboxylic acid]
 | 0.573 | CC1CCCC(N(C(=O)CC2(C(=O)O)CCN(C(=O)N(C)c3ccc(F)cc3)CC2)c2ccccc2)C1 (stereo not drawn) [compound 22, 1-[(4-fluorophenyl)-methyl-carbamoyl]-4-[2-(N-(3-methyl-cyclohexyl)anilino)-2-oxo-ethyl]piperidine-4-carboxylic acid]
 | 0.823 | Cc1cccc(N(C(=O)CC2(C(=O)O)CCN(C(=O)N(C)c3ccc(F)cc3)CC2)c2ccccc2)c1 [compound 23, 1-[(4-fluorophenyl)-methyl-carbamoyl]-4-[2-[N-(m-tolyl)anilino]-2-oxo-ethyl]piperidine-4-carboxylic acid]
